Laboratory results as given in patent US8969516B2, “Method of hydrolysis of peptide bond” (priority 2006, dated 2015).

Experiment: MALDI-TOF screening of Ni^2+ dependent hydrolysis in a combinatorial peptide library
Assay type: physicochemical
Details: Ni^2+ 2 mM, pH 8.2, 10 mM Tris, score=24/tm
Summary of the method: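 Ni2+ 2 mM, peptide pool 1 mM (total), 10 mM Tris pH 8.2; 37 °C and 45 °C in parallel; MS aliquots at 2/4/6/8 h; products detected visually. X: all proteinogenic residues except Asp, Glu, Cys; Z: all except Cys.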

[1] = CH3CO-Gly-Ala-Thr-X-His-Z-Lys-Phe-Leu-NH2 library, 37° C.
[2] = CH3CO-Gly-Ala-Thr-X-His-Z-Lys-Phe-Leu-NH2 library, 45° C.
[3] = CH3CO-Gly-Ala-Ser-X-His-Z-Lys-Phe-Leu-NH2 library, 37° C.
[4] = CH3CO-Gly-Ala-Ser-X-His-Z-Lys-Phe-Leu-NH2 library, 45° C.

Ac-GATRHPKFL-NH2 [TRHP]
hydrolysis score from MALDI-TOF screening [1]: 0 (a score of 0 if no trace of the product of hydrolysis was seen after 8 hours of incubation) | hydrolysis score from MALDI-TOF screening [2]: 0 (a score of 0 if no trace of the product of hydrolysis was seen after 8 hours of incubation)

Ac-GASWHHKFL-NH2 [SWHH]
hydrolysis score from MALDI-TOF screening [3]: 4 (a score of 4 for detection at 6 hours) | hydrolysis score from MALDI-TOF screening [4]: 3 (a score of 3 for detection at 8 hours)

Ac-GATMHEKFL-NH2 [TMHE]
hydrolysis score from MALDI-TOF screening [1]: 0 (a score of 0 if no trace of the product of hydrolysis was seen after 8 hours of incubation) | hydrolysis score from MALDI-TOF screening [2]: 0 (a score of 0 if no trace of the product of hydrolysis was seen after 8 hours of incubation)

Ac-GATQHWKFL-NH2 [TQHW]
hydrolysis score from MALDI-TOF screening [1]: 3 (a score of 3 for detection at 8 hours) | hydrolysis score from MALDI-TOF screening [2]: 4 (a score of 4 for detection at 6 hours)

Ac-GATNHGKFL-NH2 [TNHG]
hydrolysis score from MALDI-TOF screening [1]: 0 (a score of 0 if no trace of the product of hydrolysis was seen after 8 hours of incubation) | hydrolysis score from MALDI-TOF screening [2]: 0 (a score of 0 if no trace of the product of hydrolysis was seen after 8 hours of incubation)

Ac-GASRHMKFL-NH2 [SRHM]
hydrolysis score from MALDI-TOF screening [3]: 3 (a score of 3 for detection at 8 hours) | hydrolysis score from MALDI-TOF screening [4]: 3 (a score of 3 for detection at 8 hours)

Ac-GASPHSKFL-NH2 [SPHS]
hydrolysis score from MALDI-TOF screening [3]: 0 (a score of 0 if no trace of the product of hydrolysis was seen after 8 hours of incubation) | hydrolysis score from MALDI-TOF screening [4]: 0 (a score of 0 if no trace of the product of hydrolysis was seen after 8 hours of incubation)

Ac-GATGHQKFL-NH2 [TGHQ]
hydrolysis score from MALDI-TOF screening [1]: 0 (a score of 0 if no trace of the product of hydrolysis was seen after 8 hours of incubation) | hydrolysis score from MALDI-TOF screening [2]: 0 (a score of 0 if no trace of the product of hydrolysis was seen after 8 hours of incubation)

Ac-GATPHRKFL-NH2 [TPHR]
hydrolysis score from MALDI-TOF screening [2]: 0 (a score of 0 if no trace of the product of hydrolysis was seen after 8 hours of incubation)

Ac-GATQHGKFL-NH2 [TQHG]
hydrolysis score from MALDI-TOF screening [1]: 0 (a score of 0 if no trace of the product of hydrolysis was seen after 8 hours of incubation) | hydrolysis score from MALDI-TOF screening [2]: 0 (a score of 0 if no trace of the product of hydrolysis was seen after 8 hours of incubation)

Ac-GASNHLKFL-NH2 [SNHL]
hydrolysis score from MALDI-TOF screening [3]: 4 (a score of 4 for detection at 6 hours) | hydrolysis score from MALDI-TOF screening [4]: 4 (a score of 4 for detection at 6 hours)

Ac-GASQHQKFL-NH2 [SQHQ]
hydrolysis score from MALDI-TOF screening [3]: 0 (a score of 0 if no trace of the product of hydrolysis was seen after 8 hours of incubation) | hydrolysis score from MALDI-TOF screening [4]: 0 (a score of 0 if no trace of the product of hydrolysis was seen after 8 hours of incubation)

Ac-GASKHIKFL-NH2 [SKHI]
hydrolysis score from MALDI-TOF screening [3]: 6 (a score of 6 for detection at 4 hours) | hydrolysis score from MALDI-TOF screening [4]: 12 (a score of 12, if it was seen to be partially hydrolysed at 2 hours)

Ac-GATPHVKFL-NH2 [TPHV]
hydrolysis score from MALDI-TOF screening [2]: 0 (a score of 0 if no trace of the product of hydrolysis was seen after 8 hours of incubation)

Ac-GASLHKKFL-NH2 [SLHK]
hydrolysis score from MALDI-TOF screening [3]: 3 (a score of 3 for detection at 8 hours) | hydrolysis score from MALDI-TOF screening [4]: 4 (a score of 4 for detection at 6 hours)

Ac-GATFHPKFL-NH2 [TFHP]
hydrolysis score from MALDI-TOF screening [1]: 0 (a score of 0 if no trace of the product of hydrolysis was seen after 8 hours of incubation) | hydrolysis score from MALDI-TOF screening [2]: 0 (a score of 0 if no trace of the product of hydrolysis was seen after 8 hours of incubation)

Ac-GASWHVKFL-NH2 [SWHV]
hydrolysis score from MALDI-TOF screening [3]: 3 (a score of 3 for detection at 8 hours) | hydrolysis score from MALDI-TOF screening [4]: 12 (a score of 12, if it was seen to be partially hydrolysed at 2 hours)

Ac-GATIHRKFL-NH2 [TIHR]
hydrolysis score from MALDI-TOF screening [1]: 0 (a score of 0 if no trace of the product of hydrolysis was seen after 8 hours of incubation) | hydrolysis score from MALDI-TOF screening [2]: 3 (a score of 3 for detection at 8 hours)
